Assay results published in US20250170117A1, “MODULATORS OF ACKR3 AND USES THEREOF” (InterAx Biotech AG, priority 2022, published 2025).
Structures can show the parent of a compound that is named as a salt.

What was measured:
[1] = Single-dose pharmacokinetics study in mice; type: in vivo; conditions: male CD1 mice, IP, 30 mg/kg; for pharmacokinetic profiles (half-lives) compared with reference compound: versus ACT-1004-1239; for half-life: mouse, blood, LC-MS/MS, read-out: PK half-life
Method: Male CD1 mice were administered IP with compound dissolved in vehicle (10% HP-β-CD in 100 mM Citrate buffer, pH 7) at a dose of 30 mg/kg and mice were sacrificed at different time points (n=3 per time point) following compound administration. Blood samples were harvested at different time points and compound concentration was determined by LC-MS/MS.

CXCL12 = assay: Target engagement study in mice (blood CXCL12 by ELISA); type: in vivo; conditions: male CD1 mice, IP, 30 mg/kg; for target engagement compared with reference compound: 16 h, versus ACT-1004-1239
Method: Male CD1 mice were administered IP with compound dissolved in vehicle (10% HP-β-CD in 100 mM Citrate buffer, pH 7) at a dose of 30 mg/kg and mice were sacrificed 16 h (n=3 per time point) following compound administration. Blood samples were harvested and CXCL12 concentration was determined by CXCL12 ELISA kit.

[2] = In vitro microsomal stability assay (metabolic stability); type: in vitro ADME, mouse; conditions: for half-life at 10 μM: mouse liver microsomes (male CD-1), NADPH regenerative system, 10 μM compound, 15, 30 or 60 minutes; for metabolic stability compared with reference compound: mouse liver microsomes, versus ACT-1004-1239
Method: Mouse liver microsomes (from S9 liver fraction from male CD-1 mice) are co-incubated with an NADPH regenerative system (1.3 mM NADP+, 3.3. mM glucose-6-phoase, 3.3 mM MgCl2 and 0.4 units/ml glucose-6-phosphate-dehydrogenase) and 10 μM compound for 15, 30 or 60 minutes. Reaction was terminated by centrifugation at max speed and samples were analyzed by LC-MS.

NanoLuc-hACKR3 = molecular target: T1, NanoLuc-hACKR3 (Homo sapiens, UniProt P25106); assay: NanoBRET binding study (displacement of fluorescently labelled CXCL12); conditions: displacement of 0.3 nM CXCL12-AF647; membranes of HEK293T cells expressing NanoLuc-ACKR3; 1 hour incubation; read-out: Affinity
T1 construct: expressed in transfected cells; host or cells: HEK293T (transient, PEI; membrane preparation)
T1 sequence (P25106 whole entry): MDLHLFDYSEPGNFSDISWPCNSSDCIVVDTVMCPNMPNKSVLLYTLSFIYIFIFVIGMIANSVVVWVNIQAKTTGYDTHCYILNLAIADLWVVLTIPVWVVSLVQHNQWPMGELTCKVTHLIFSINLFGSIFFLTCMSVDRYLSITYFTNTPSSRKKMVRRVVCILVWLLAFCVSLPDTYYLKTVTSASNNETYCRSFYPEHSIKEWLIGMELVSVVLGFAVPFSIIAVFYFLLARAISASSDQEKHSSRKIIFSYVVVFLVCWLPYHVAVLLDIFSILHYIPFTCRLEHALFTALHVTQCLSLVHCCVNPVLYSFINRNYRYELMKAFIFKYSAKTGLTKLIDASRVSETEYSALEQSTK
Method: Membranes of HEK293T cells that transiently express the NanoLuc-hACKR3 were produced. 2 million HEK293T cells were seeded per […] dish and were transfected the next day using a DNA/PEI-mix containing 0.25 μg plasmid DNA encoding for the ACKR3, 4.75 μg pcDEF3 plasmid DNA and 30 μg linear PEI. Two days after transfection, cells were collected in PBS and pelleted by centrifugation. Cell pellets were resuspended in ice-cold membrane buffer (15 mM Tris, 0.3 mM EDTA, 2 mM MgCl2, pH 7.4 at 4° C.) and were dounce-homogenized on ice by plunging the pestle […] with 1500 rpm. Cell homogenates were subsequently subjected to two freeze-thaw cycles using liquid nitrogen. Next, the cell homogenates were centrifuged at 40,000 g and pellets were resuspended in Tris-sucrose buffer (20 mM Tris, 250 mM Sucrose, pH 7.4 at 4° C.). Finally, the membrane samples were homogenized using a 23-gauge needle, snap-frozen with liquid nitrogen and stored until further experimentation at −80° C.
Binding reactions were measured in triplicate on white low-volume 384-well plates and started by combining 0.3 nM fluorescently labelled CXCL12 (CXCL12 labelled with a AF647® dye in a molar ratio of dye:peptide of 1:1, purchased from ALMAC, h-SDF-1α (AF647®), cat. No. CAF-11, Sequence:
[…](Ale xa647®)ALN), increasing concentrations of test compound (10^−5 M-10^−11 M) with 35 ng membranes (protein content) per well of HEK293T cells expressing the NanoLuc-ACKR3. All dilutions were prepared in HBSS supplemented with 0.2% BSA. After assembling the binding reaction, the plate was flash-centrifuged at 500 g. Binding reactions were then incubated for 1 hour after which NanoGlo substrate was added (310 times diluted from stock concentration) to a final volume of 13.5 μL. The reaction plate was again pulse-centrifuged to 500 g and the total light intensity was measured for 460 nm wavelength with 80 nm bandwidth and separately for wavelengths ≥610 nm using the PHERAstar-FSX (BMG Labtech, Ortenberg, Germany) with a dual emission filter. The ratio of light intensities (>610 nm over 460 nm) is a measure for the relative binding of CXCL12-A647 to the NanoLuc-ACKR3. The pharmacological data are presented in Appendix 1.

O=C(NCC1CCN(C2CCCCC2)CC1)c1cc(-c2ccc(F)cc2F)on1 [Molecule 1, N-[(1-cyclohexylpiperidin-4-yl)methyl]-5-(2,4-difluorophenyl)-1,2-oxazole-3-carboxamide HCl]
pharmacokinetic profiles (half-lives) compared with reference compound [1]: better than the reference compound
half-life [1]: 2 to 4 h
target engagement compared with reference compound (CXCL12): comparable or better than the reference compound
half-life at 10 μM [2]: > 10 h
metabolic stability compared with reference compound [2]: comparable or better than the reference compound
Ki (NanoLuc-hACKR3): ≤ 100 nM

O=C(NCC1CCN(Cc2ccc(N3CCCC3)cc2)CC1)c1cc(-c2ccc(F)cc2F)on1 [Molecule 44, 5-(2,4-difluorophenyl)-N-((1-(4-(pyrrolidin-1-yl)benzyl)piperidin-4-yl)methyl)isoxazole-3-carboxamide]
pharmacokinetic profiles (half-lives) compared with reference compound [1]: better than the reference compound
half-life [1]: > 4 h
target engagement compared with reference compound (CXCL12): comparable or better than the reference compound
Target engagement (CXCL12 fold-increase) (CXCL12; blood 16 h after administration, CXCL12 ELISA): ++ (>3 = ++)
half-life at 10 μM [2]: 2 to 4 h
metabolic stability compared with reference compound [2]: comparable or better than the reference compound
Ki (NanoLuc-hACKR3): ≤ 100 nM
